Results reported in the supplement of paper PMC8612539.
In brackets after ≈: the same amount, converted by molar mass.

System: Pasteurella multocida
Assay: minimum inhibitory concentration (MIC)
Method: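 Broth microdilution MIC (Sensititre BOPO7F bovine plate, CLSI methods) of 19 antimicrobials against field isolates of P. multocida, M. haemolytica, H. somni (deep nasopharyngeal swabs) and E. coli, Enterococcus spp. (rectal swabs) from weaned dairy heifers. Incubation 16-24 h at 35 C. MIC is the lowest concentration preventing visible growth. Values with <= or > lie at the tested range limits. Trimethoprim-sulfamethoxazole is given as the trimethoprim component of a 1:19 mixture.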

CN(C)[C@@H]1C(O)=C(C(N)=O)C(=O)[C@@]2(O)C(O)=C3C(=O)c4c(O)cccc4[C@@](C)(O)[C@H]3C[C@@H]12 [Tetracycline]
Conditions	minimum inhibitory concentration [µg/mL]
isolate (source animal id): 10	> 8
isolate (source animal id): 11	> 8
isolate (source animal id): 12	> 8
isolate (source animal id): 19	> 8
isolate (source animal id): 23	> 8
isolate (source animal id): 26	> 8
isolate (source animal id): 98	> 8
isolate (source animal id): 104	> 8
isolate (source animal id): 115	> 8
isolate (source animal id): 117	> 8
isolate (source animal id): 118	> 8
isolate (source animal id): 121	> 8
isolate (source animal id): 124	> 8
isolate (source animal id): 125	> 8
isolate (source animal id): 128	> 8
isolate (source animal id): 131	> 8
isolate (source animal id): 135	> 8
isolate (source animal id): 136	> 8
isolate (source animal id): 140	> 8
isolate (source animal id): 144	> 8
isolate (source animal id): 146	> 8
isolate (source animal id): 150	> 8
isolate (source animal id): 151	> 8
isolate (source animal id): 153	> 8
isolate (source animal id): 155	> 8
isolate (source animal id): 157	> 8
isolate (source animal id): 160	> 8
isolate (source animal id): 164	> 8
isolate (source animal id): 165	> 8
isolate (source animal id): 167	> 8
isolate (source animal id): 168	> 8
isolate (source animal id): 169	4 (≈ 9 µM)
isolate (source animal id): 170	8 (≈ 18 µM)
isolate (source animal id): 171	8 (≈ 18 µM)
isolate (source animal id): 172	> 8
isolate (source animal id): 173	> 8
isolate (source animal id): 174	> 8
isolate (source animal id): 175	> 8
isolate (source animal id): 176	> 8
isolate (source animal id): 177	> 8
isolate (source animal id): 178	> 8
isolate (source animal id): 179	8 (≈ 18 µM)
isolate (source animal id): 182	> 8
isolate (source animal id): 192	> 8
isolate (source animal id): 193	> 8
isolate (source animal id): 195	> 8
isolate (source animal id): 196	> 8
isolate (source animal id): 197	> 8
isolate (source animal id): 198	> 8
isolate (source animal id): 199	8 (≈ 18 µM)
isolate (source animal id): 200	8 (≈ 18 µM)
isolate (source animal id): 201	8 (≈ 18 µM)
isolate (source animal id): 203	> 8
isolate (source animal id): 204	> 8
isolate (source animal id): 205	> 8
isolate (source animal id): 206	> 8
isolate (source animal id): 207	> 8
isolate (source animal id): 208	8 (≈ 18 µM)
isolate (source animal id): 209	> 8
isolate (source animal id): 210	> 8
isolate (source animal id): 213	8 (≈ 18 µM)
isolate (source animal id): 216	8 (≈ 18 µM)
isolate (source animal id): 223	> 8
isolate (source animal id): 227	> 8
isolate (source animal id): 229	> 8
isolate (source animal id): 233	> 8
isolate (source animal id): 234	> 8
isolate (source animal id): 237	> 8
isolate (source animal id): 241	> 8
isolate (source animal id): 245	> 8
isolate (source animal id): 247	> 8
isolate (source animal id): 250	> 8
isolate (source animal id): 254	> 8
isolate (source animal id): 255	> 8
isolate (source animal id): 258	> 8
isolate (source animal id): 261	> 8
isolate (source animal id): 262	> 8
isolate (source animal id): 269	8 (≈ 18 µM)
isolate (source animal id): 270	> 8
isolate (source animal id): 274	> 8
isolate (source animal id): 275	> 8
isolate (source animal id): 276	> 8
isolate (source animal id): 277	8 (≈ 18 µM)
isolate (source animal id): 278	> 8
isolate (source animal id): 279	> 8
isolate (source animal id): 280	> 8
isolate (source animal id): 284	> 8
isolate (source animal id): 285	> 8
isolate (source animal id): 287	> 8
isolate (source animal id): 290	> 8
isolate (source animal id): 294	> 8
isolate (source animal id): 295	> 8
isolate (source animal id): 296	> 8
isolate (source animal id): 307	> 8
isolate (source animal id): 310	> 8
isolate (source animal id): 311	> 8
isolate (source animal id): 312	> 8
isolate (source animal id): 313	> 8
isolate (source animal id): 315	> 8
isolate (source animal id): 316	> 8
